The record followed here is paper PMC8999917, “Structure–Activity Relationship of Synthetic Ginkgolic Acid Analogs for Treating Type 2 Diabetes by PTPN9 Inhibition” (International Journal of Molecular Sciences, 2022).

One experiment deals with T1, PTPN9 (Homo sapiens, UniProt P43378).
T1 construct: made in house; host or cells: Escherichia coli Rosetta (DE3)
T1 sequence (P43378 277-581): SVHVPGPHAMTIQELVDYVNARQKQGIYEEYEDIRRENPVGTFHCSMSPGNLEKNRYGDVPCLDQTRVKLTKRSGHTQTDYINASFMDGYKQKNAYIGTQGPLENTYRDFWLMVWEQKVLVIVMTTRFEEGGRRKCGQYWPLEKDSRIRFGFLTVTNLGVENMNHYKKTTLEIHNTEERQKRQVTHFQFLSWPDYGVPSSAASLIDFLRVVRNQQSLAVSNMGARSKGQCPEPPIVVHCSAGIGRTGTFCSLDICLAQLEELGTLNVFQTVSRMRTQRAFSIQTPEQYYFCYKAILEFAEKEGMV
In words: PTPN9 enzyme inhibition with DiFMUP substrate. The settings on record: DiFMUP 220 µM, PTPN9 0.15 nM; NA: no activity. In kind it is biochemical. How it is done:
(§1) The purification and kinetic analyses of PTPN9 and DUSP9 (Ser277–581) were performed following methods described in the literature, with slight modifications. PAGE analysis data and enzyme kinetic constants are presented in Figure S1 and Table S1, respectively. Enzyme activity in the presence or absence of the compounds was measured using DiFMUP, a representative PTP fluorogenic substrate. First, the inhibitory effects of compounds 1–3 were evaluated using 50 µM PTPN9 and 20 µM DUSP9. There was an increase in the inhibitory activity of compound 1 for both enzymes as the number of CH2 units increased from 9 to 14 (Figure 2A,B).
(§2) Next, the IC50 values of the compounds, which induce a 50% inhibition of DiFMUP hydrolytic enzyme activity, were determined (Table 1). The IC50 values were determined from the dose–response enzyme inhibition curves of each compound. The dose–response curves for compounds 1e and 1f against PTPN9 and DUSP9, respectively, are presented in Figure 2C,D. Dose–response curves were also obtained for the other compounds (Figures S2 and S3).
(§3) The methods employed for PTP overexpression and purification have been described in a previous study. In brief, human PTPN9 and DUSP9 were cloned into a pET28a vector (Merk Millipore, Darmstadt, Germany) containing a hexahistidine (His6) tag or a maltose-binding protein (MBP) tag in its N-terminus (see Supplementary Materials). Recombinant genes were separately transformed into Escherichia coli Rosetta (DE3) (Merk Millipore, Darmstadt, Germany), and the overexpression of each gene was induced via the addition of 0.1 mM IPTG (Ducherfa Biochemie, Haarlem, RV, USA). After 16 h of incubation at 18 °C, cell pellets were obtained via centrifugation (3570× g at 4 °C for 15 min), resuspended in lysis buffer (50 mM Tris, pH: 7.5, 500 mM NaCl, 5% glycerol, 0.025% 2-mercaptoethanol, and 1 mM phenyl-methylsulfonyl fluoride (PMSF)), and lysed by ultrasonication. Subsequently, cell lysates were centrifuged at 29,820× g for 30 min at 4 °C; then, the supernatant was collected and incubated with a cobalt affinity resin (TALON® Metal Affinity Resin, Takara Korea, Seoul, Korea). After 1 h of incubation at 4 °C, the desired proteins were eluted by adding the lysis buffer supplemented with 100 mM imidazole. Samples were stored at –80 °C until use.
(§4) The enzymatic activities of purified PTPN9 and DUSP9 were measured using 6,8-difluoro-4-methylumbelliferyl phosphate (DiFMUP), the most widely used fluorogenic PTP substrate in the literature. To determine KM values, PTPN9 (0.15 nM) and DUSP9 (200 nM) were added to a reaction buffer (20 mM Bis-tris, pH: 7.0, 150 mM NaCl, 2.5 mM dithiothreitol (DTT), and 0.01% Triton X-100) containing DiFMUP (800, 400, 200, 100, 50, 25, 12.5, or 6.25 μM) in a 96-well black plate. The final reaction volume was 100 µL. The fluorescence intensity was continuously monitored for 10 min (Ex/Em = 355/460 nm) on a Victor™ X4 multilabel plate reader (Perkin Elmer, Norwalk, CT, USA). KM values were obtained using Lineweaver–Burk plots analysis.
(§5) To evaluate the enzyme inhibitory effects of GA and its analogs, 10 µl of the enzyme stock solution (1.5 nM PTPN9 and 2 µM DUSP9) in the reaction buffer was added into the mixture of DiFMUP (to a final concentration of 220 µM and 90 µM for PTPN9 and DUSP9, respectively) and each compound (to a final concentration of 50 µM and 20 µM for PTPN9 and DUSP9, respectively) was added to the reaction buffer. Enzyme activity was measured as described above. Half-inhibitory concentration (IC50) values were determined under similar conditions, except for the concentrations of the inhibitors (200, 100, 50, 25, 12.5, 6.25, or 3.125 µM for PTPN9 and 25, 12.5, 6.25, 3.125, 1.563, 0.782, or 0.391 µM for DUSP9). The dose-dependent curve was fitted to the four-parameter logistic regression equation, (y = a + (b – a)/(1 + (x/c)^d), to obtain IC50 values using the Kaleida Graph software Ver. 4.1.3. (Synergy Software Inc, PA, USA).

The target of the next experiment is T2, DUSP9 (Homo sapiens, UniProt Q99956).
T2 construct: made in house; host or cells: Escherichia coli Rosetta (DE3)
T2 sequence (Q99956 1-384): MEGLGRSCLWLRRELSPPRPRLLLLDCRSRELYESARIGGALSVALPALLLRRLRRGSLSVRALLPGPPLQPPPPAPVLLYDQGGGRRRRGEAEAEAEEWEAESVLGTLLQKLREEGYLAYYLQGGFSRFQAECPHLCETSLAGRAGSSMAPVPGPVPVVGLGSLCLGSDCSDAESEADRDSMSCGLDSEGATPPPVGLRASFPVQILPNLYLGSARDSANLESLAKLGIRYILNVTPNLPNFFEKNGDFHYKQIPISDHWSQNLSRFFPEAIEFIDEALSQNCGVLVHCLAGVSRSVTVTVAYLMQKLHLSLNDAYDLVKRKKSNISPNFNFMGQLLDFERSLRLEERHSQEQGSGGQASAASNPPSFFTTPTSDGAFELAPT
In words: DUSP9 enzyme inhibition with DiFMUP substrate. It counts as biochemical. The settings on record: DiFMUP 90 µM, DUSP9 200 nM; NA: no activity. The protocol:
as §1, §2, §3, §4, §5

In experiment [1] the test system is Akt phosphorylation in PA-induced insulin-resistant C2C12 cells. In words: Palmitic acid-induced insulin resistance in C2C12 myotubes (p-Akt). It counts as cell-based, mouse. To be noted: PA (250 µM, 16 h)-treated C2C12, 5 μM compound for 30 min with 100 nM insulin. How it is done:
Since insulin plays an important role in regulating glucose metabolism through the redistribution of GLUT4 from intracellular vesicles to the cell surface, it is important to describe the interaction between 1e and insulin in the Akt pathway. […] Next, we evaluated the protective effects of 1e against PA-induced insulin resistance in C2C12 myotubes. To generate an insulin resistance model, C2C12 myotubes were treated with 250 µM PA in a serum-free medium for 16 h. Akt phosphorylation levels in PA-treated C2C12 cells decreased by 50% compared to levels in normal C2C12 cells (Figure 6C). Furthermore, in the presence of insulin and GA, Akt phosphorylation levels decreased only by 30% compared to levels in normal cells. […] In addition, the GA analogs induced no cytotoxic effects in C2C12 muscle cells (data not shown). […] The expression levels of glucose uptake-related proteins were determined via Western blotting, as previously described. In brief, differentiated 3T3-L1 cells were plated in six-well plates at a 1.5 × 10^4 cells/well density in a final volume of 2 mL. […] Secondary antibodies were added to the membranes at a concentration of 1:2000 for 1 h at room temperature, and immunoreactive bands were detected via ECL (GE Healthcare Korea Co., Ltd., Incheon, Korea). […]

The structures appear in SMILES notation.

One may read the IC50 as the concentration that gives 50% inhibition.

For the molecule `CCCCCCCCCCCCCc1cccc(O)c1C(=O)O` [GA, Ginkgolic acid (C13:0), reference compound], the IC50 at PTPN9 amounted to 21.8 ± 0.45 µM; at DUSP9, 3.64 ± 0.11 µM. Also, the “decrease of Akt phosphorylation levels compared to normal cells” value in experiment [1] was found to be 30%.
